Measurements as given in patent US7220732B2, “Compounds useful as photodynamic therapeutic agents” (priority 2002, dated 2007).

Assays:
[1] = Spectroscopic absorbance properties; assay type: physicochemical
Excerpt: The absorption bands of each photosensitiser are relatively insensitive to solvent changes with solutions in water/Cremophor resulting in a further bathochromic shift of ˜10 nm (Table 1). Excitation of chloroform solutions of the 2a and 4a at 635 nm gave a fluorescence band at 672 and 673 nm respectively (FIG. 2, Table 2). […] The reduction in fluorescence quantum yield in the series would imply more efficient population of the triplet excited state which would benefit singlet oxygen production. The ability of 2 and 4 to produce singlet oxygen would be a prerequisite to them being potential PDT agents.

HeLa cells [2] = experiment: F-actin staining fluorescence microscopy of treated HeLa cells; assay type: cell-based
Protocol: FIG. 15 illustrates a control experiment which is a fluorescence microscope image of F-actin stained HeLa cells (with rhodamine phalloidine, red colour) 24 hours after treatment with Compound 2a and no exposure to light (0 min light dose). FIG. 15 illustrates such F-Actin stained cells are live.
FIG. 16 confirms cell death following treatment with Compound 2a and 30 minute 500 W light dose, using fluorescence microscopy. More specifically, FIG. 16 is a fluorescence microscope image of F-actin stained HeLa cells (with rhodamine phalloidine, red colour) 24 hours after treatment with Compound 2a and 30 minute light dose.

HeLa cells [3] = experiment: Fluorescence microscopy cellular localisation (DAPI dual staining); assay type: cell-based; conditions: 10^−5 M, DAPI nuclear stain
Protocol: (§1) Cells were seeded at a density of 30,000 cells/well in chamber slides and allowed to adhere for 24 hr. 2a (10^−5 M) was then added to each chamber and incubated at 37° C. in the dark for either 1 hr or 3 hrs at 37° C.—a one hour incubation was used for FIGS. 4 and 5. The medium was removed and the cells were washed 4 times with drug-free (2a free) medium. The cells were then fixed with 3.7% (v/v) formaldehyde for 15 min at 37° C. The fixative solution was removed and the cells were washed twice with sterile PBS. DAPI (4′,6-diamidino-2-phenylindole) nuclear stain (1/1000) was then incubated with the cells for 10 min at 37° C., following which the cells were washed twice with PBS. Cells were then mounted in Vectashield (Trade Mark) mounting medium.
The cells were viewed using an Axio Zeiss fluorescent microscope. The cells were examined at the different time points using two different filters. The rhodamine filter, which is specific for the wavelength region in which 2a fluoresces, was used to visualise 2a. The DAPI filter was employed to examine the nuclei of the cells.
Cancer cellular uptake of a photosensitiser is a prerequisite for it to act as a PDT agent. Delivery of our proposed PDT agents required formulation of the sensitisers in order to impart water solubility. […]

[4] = Confocal microscopy subcellular localisation; assay type: cell-based; conditions: FIGS. 17–19
Protocol: as §1
The cells were viewed using a Leica TCSSL Confocal Laser Scanning microscope (the LSM510 META Confocal Microscope was used to visualise DAPI and 2a simultaneously).
These could be lysosomes which have a typical size range of 0.2–2 μm; peroxisomes which have a typical size range of 0.5–1.5 μm; or endosomes which have a typical size range of 0.2–2 μm. It will be appreciated that localisation of the photosensitising compounds of the invention in different subcellular sites may impact on how effective the photodynamic therapy may be.

HeLa cells [5] = experiment: Fluorescence microscopy efflux study in HeLa cells; assay type: cell-based; conditions: after 3 hrs incubation with 10^−5 M
Protocol: Cells were seeded at a density of 30,000 cells/well in chamber slides and allowed to adhere for 24 hr. A compound of the present invention (10^−5 M) was then added to each chamber and incubated at 37° C. in the dark for 3 hrs. The same procedure was used as for the uptake studies, but for the efflux studies, the cells were treated with fixative solution at specified times after removal of the drug, for example, 5 min, 15 min, 30 min, 1 hr, 2 hr, 3 hr, 6 hr and 24 hr. The slides were then viewed using an Axio Zeiss fluorescent microscope. The cells were examined at the different time points using two different filters. The rhodamine filter was used to visualise the compound of the present invention. […]
LabWorks (Bioimaging Systems) was used to calculate the average fluorescence intensity per cell for each of the different time points used in the uptake and efflux studies for the compounds of the present invention. […] The DAPI filter was used to accurately count the number of cells in each field of view and the rhodamine filter was used to quantify the fluorescence of the compounds of the present invention.
Using the assay method set out above under the heading “Fluorescence Microscopy”, the efflux of 2a was examined from Hela cells and the data are illustrated in FIG. 7. […]

HeLa cancer cells = experiment: Preliminary light toxicity assay; assay type: cell-based; conditions: 24 hours exposure, 15 minutes irradiation >570 nm
Protocol: HeLa cancer calls were exposed to 2a in varying concentrations for 24 hours. 2a laden medium was removed and replaced with fresh medium. Cells were irradiated at constant temperature of 37° C. for 15 minutes with light from a 100 W or 500 W halogen lamp passed through a red glass and water filter barrier, thereby ensuring cells are irradiated with light of more than 570 nm. Irradiated cells were incubated for a further 24 hrs at 37° C. MT cell viability assay was performed.
The dark toxicity effect may be caused by the micellar delivery vehicle itself.

[6] = Water/Cremophor (100:1), room temperature

- fwhm (full width at half maximum) ([1]; CHCl3, room temperature): 49 nm
- ε (molar extinction coefficient) ([1]; CHCl3, room temperature): 79,000 M^−1cm^−1
- λmax (absorbance) ([1]; CHCl3, room temperature): 650 nm
- fwhm (full width at half maximum) [1, 6]: 53 nm
- λmax (absorbance) [1, 6]: 658 nm
Structure (SMILES): F[B-]1(F)n2c(-c3ccccc3)cc(-c3ccccc3)c2N=C2C(c3ccccc3)=CC(c3ccccc3)=[N+]21 [Compound 2a]
- cell state by F-actin staining (HeLa cells [2]; 24 hours after treatment and 30 minute 500 W light dose): cell death
- cell state by F-actin staining (HeLa cells [2]; 24 hours after treatment, no exposure to light): live
- cellular localisation (HeLa cells [3]): primarily at the endoplasmic reticulum and not in the nucleus
- cellular localisation [4]: both diffuse and punctuated cytoplasmic localisation
- time to complete efflux (HeLa cells [5]): 1000 min
- dose response (HeLa cancer cells; 100 W light source, compared with 500 W): poorer response
- EC50 (HeLa cancer cells; 500 W light source): 1 µM
